Several values for one entry are separate records, joined by “and”; a condition that tells them apart may be missing. Equal values may be shown once. No end group written: not given here.
Columns and labels:
hCB2 receptor [1] = molecular target: T1, hCB2 receptor (Homo sapiens, UniProt P34972); assay: [35S]GTPγS assay on hCB2 membranes; format: biochemical; parameters: expressed in transfected cells; host or cells: CHO-K1; settings: for EC50 / [35S]GTPγS assay Max. Effect: 2-AG, mean (95% CI)
Method: Assays were performed as previously described. Clean membranes expressing hCB2 were diluted in silanized plastic tubes with GTPγS binding buffer (50 mM Tris-HCl, 3 mM MgCl2, 0.2 mM EGTA and 100 mM NaCl at pH 7.4 supplemented with 0.5% fatty acid-free BSA) in the presence of 10 μM of GDP and 0.1 nM of [^35S]GTPγS. The mixture was kept on ice until the binding reaction was started by adding the vehicle or compounds. Non-specific binding was measured in presence of 10 μM GTPγS. The tubes were incubated at 30 °C for 90 min under shaking and then put on ice to stop the reaction. An aliquot (185 μL) of the reaction mixture was rapidly filtered through a 96-well microplate bonded with GF/B glass fibre filters previously pre-soaked with ice-cold washing buffer (50 mM of Tris-HCl pH 7.4 plus 0.1% fatty acid-free BSA). The filters were washed six times with 180 µL of washing buffer under vacuum. The radioactivity was measured after the addition of 45 µL of MicroScint20 scintillation cocktail. Specific binding was calculated by subtracting the residual radioactivity signal obtained in presence of an excess of GTPγS and the results were expressed as % of vehicle control.

hCB2 receptor [2] = molecular target: T1, hCB2 receptor; assay: cAMP assay in CHO-K1-hCB2 cells (GloSensor); format: cell-based; parameters: expressed in transfected cells; host or cells: CHO-K1; settings: for EC50: 2-AG, mean (95% CI)
Method: cAMP assays were performed in CHO-K1-hCB2 stably transfected with the pGloSensorTM 22-F plasmid (Promega) as previously described. Briefly, cells were seeded in 96-well plate and after attachment the medium was replaced by 40 µL of equilibration medium (GloSensor™ cAMP Reagent diluted in 5% v v^−1 of CO2-independent medium plus 10% FBS). The plates were incubated for 2 h at RT in the dark. […] Chemiluminescence was monitored continuously starting from immediately after the addition and for 30 min (keeping the plate at RT and in the dark). Basal levels of chemiluminescence (cells plus IBMX and vehicle without forskolin) were subtracted to the measured values. Results were normalized by subtracting the residual cAMP production and expressed as % of vehicle control.

hCB2 receptor [3] = molecular target: T1, hCB2 receptor; assay: Equilibrium binding / displacement of fluorescent pepcan-F4 on CHO-K1-hCB2 cells; parameters: expressed in transfected cells; host or cells: CHO-K1; settings: for Ki: 100 nM pepcan-F4
Method: The equilibrium dissociation constant (Kd value) of the fluorescein-labeled pepcan-12 derivative pepcan-F4 was determined using CHO-K1-hCB2 cells as previously described. Equilibrium saturation binding was determined experimentally, and maximal specific binding (saturation) was reached already at 5 min at 37 °C. Different concentrations of pepcans and 100 nM pepcan-F4 were incubated together with […] suspended in 200 μL of binding buffer in silanized plastic tubes, under shaking for 60 min at 37 °C. After centrifugation at 4 °C and washing with ice-cold binding buffer, the cells were resuspended in ice-cold PBS and transferred into 96-well black plates, where the fluorescence intensities were measured using a Tecan Farcyte reader (485 nm excitation/535 nm emission). The specific binding was determined after washing and subtracting the nonspecific fluorescence calculated in parallel experiments carried out in non-transfected CHO cells.

hCB2 receptor [4] = molecular target: T1, hCB2 receptor; assay: Radioligand binding assays with [3H]CP55,940 and [3H]WIN55,212-2 on CHO-K1-hCB2 membranes; parameters: expressed in transfected cells; host or cells: CHO-K1; settings: for enhancement of [3H]CP55,940 and [3H]WIN55,212-2 receptor binding: 100 nM and 1 μM; for Kb: pKB, ternary complex model
Method: After the incubation time, membrane suspensions were rapidly filtered through a 0.1% polyethyleneimine presoaked 96-well microplate bonded with GF/B glass fiber filters (UniFilter-96 GF/B, PerkinElmer Life Sciences) under vacuum and washed 12 times with 150 μL of ice-cold binding buffer Filters were added with 40 μL of MicroScint20 scintillation liquid, and radioactivity was measured with the Trilux top counter (PerkinElmer Life Sciences). Data were collected from 3–10 independent experiments, each performed in triplicate, and the nonspecific binding was subtracted. The results are expressed as a percentage of vehicle-treated samples.

hCB2 receptor [5] = molecular target: T1, hCB2 receptor; assay: Dissociation kinetics of [3H]CP55,940 by isotopic dilution; format: binding; parameters: expressed in transfected cells; settings: 1 μM CP55,940 added to bound [3H]CP55,940 (0.5 nM), 300 nM pepcan-12
Method: Dissociation kinetics experiments were performed as described before. […] […] […] After the incubation time, membrane suspensions were rapidly filtered through a 0.1% polyethyleneimine presoaked 96-well microplate bonded with GF/B glass fiber filters and washed as described above.

T1 sequence (P34972 whole entry): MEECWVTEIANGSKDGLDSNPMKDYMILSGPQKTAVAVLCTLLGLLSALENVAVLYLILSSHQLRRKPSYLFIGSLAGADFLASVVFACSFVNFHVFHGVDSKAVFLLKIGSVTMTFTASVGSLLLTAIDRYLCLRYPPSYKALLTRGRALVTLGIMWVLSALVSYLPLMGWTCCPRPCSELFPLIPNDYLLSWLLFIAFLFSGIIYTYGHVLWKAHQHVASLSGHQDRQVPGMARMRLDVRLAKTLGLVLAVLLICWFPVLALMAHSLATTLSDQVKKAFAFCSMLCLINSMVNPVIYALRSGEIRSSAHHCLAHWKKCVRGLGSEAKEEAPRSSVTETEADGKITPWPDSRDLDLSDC

## CCCCC/C=C\C/C=C\C/C=C\C/C=C\CCCC(=O)OC(CO)CO [Pepcan 2-AG, 2-arachidonoyl glycerol]
hCB2 receptor [1]; pepcan-12 0 nM
  EC50: 95.8 nM
  [35S]GTPγS assay Max. Effect: 235 (220–251) % of crtl
hCB2 receptor [1]; pepcan-12 10 nM
  EC50: 64.9 nM
  [35S]GTPγS assay Max. Effect: 238 (221–251) % of crtl
hCB2 receptor [1]; pepcan-12 30 nM
  EC50: 40.9 nM
  [35S]GTPγS assay Max. Effect: 254 (237–272) % of crtl
hCB2 receptor [1]; pepcan-12 100 nM
  EC50: 35.4 nM
  [35S]GTPγS assay Max. Effect: 291 (265–318) % of crtl
hCB2 receptor [2]; pepcan-12 0 nM
  EC50: 92.1 nM
hCB2 receptor [2]; pepcan-12 10 nM
  EC50: 102 nM
hCB2 receptor [2]; pepcan-12 30 nM
  EC50: 25.1 nM
hCB2 receptor [2]; pepcan-12 100 nM
  EC50: 12.4 nM

## HAHKLRVDPVNFKLLSH [Pepcan-17]
hCB2 receptor [3]
  Ki: 183 ± 39.4 nM

## HKLRVDPVNFKLLSH [Pepcan-15]
hCB2 receptor [3]
  Ki: 77.8 ± 8.2 nM

## KLRVDPVNFKLLSH [Pepcan-14]
hCB2 receptor [4]
  enhancement of [3H]CP55,940 and [3H]WIN55,212-2 receptor binding: weaker yet still significant effects
hCB2 receptor [1]; no orthosteric ligand
  effect on [35S]GTPγS binding in absence of agonist: Lack of effects
hCB2 receptor [2]; no orthosteric ligand
  effect on cAMP levels in absence of agonist: Lack of effects

## RVDPVNFKLLSH [Pepcan-12]
hCB2 receptor [4]; [3H]CP55,940 bound
  Kb: 58.9 nM
hCB2 receptor [4]; [3H]WIN55,212-2 bound
  Kb: 53.7 nM
hCB2 receptor [3]
  Ki: 44.7 nM and ~50 nM
hCB2 receptor [5]
  Half-life (fast): 0.844 (0.703 to 1.057) min
  Half-life (slow): 49.90 (29.3 to 169.3) min

## SALSDLHAHKLRVDPVNFKLLSH [Pepcan-23, putative precursor of pepcan-12]
hCB2 receptor [4]
  enhancement of [3H]CP55,940 and [3H]WIN55,212-2 receptor binding: did not exhibit any receptor interaction

## SDLHAHKLRVDPVNFKLLSH [Pepcan-20]
hCB2 receptor [3]
  Ki: > 10000 nM

## pepcan-F4: C-terminal fluorescence-labeled (fluorescein) pepcan-12 conjugate (RVDPVNFKLLSH; synthetic pepcan-12 (alpha-hemoglobin fragment)
hCB2 receptor [3]; specific saturation curve, read-out: apparent Kd for hCB2 receptors
  Kd: 123 ± 41.2 nM

From article PMC5573408, “Pepcan-12 (RVD-hemopressin) is a CB2 receptor positive allosteric modulator constitutively secreted by adrenals and in liver upon tissue damage” (Scientific Reports, 2017)
